In US20100029643A1 (ASTRAZENECA AB, priority 2006, published 2010) one finds inhibition and EC50 data, which are given here for 33 compounds.

This assay addresses T1, Edg-1/S1P1 receptor (Homo sapiens, UniProt P21453).
T1 construct: expressed in transfected cells; host or cells: human osteogenic sarcoma U2OS cells: Edg-1 Transfluor U2OS WT Clone #37 (assay I), Edg-1 Transfluor U2OS Clone #3 (assay II)
Kind of assay: In vitro cell based receptor activation assay - Transfluor assay (assay I or II; beta-arrestin GFP relocalization after S1P stimulation). The note with it: for inhibition at 3.5 µM: at 3.50 μM (titrated from top concentration 10 μM); for inhibition at 3.7 µM: at 3.70 μM (titrated from top concentration 100 μM). In outline:
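U2OS cells overexpressing S1P1 with a beta-arrestin-GFP construct were pre-incubated with compound for 15 min at room temperature, then stimulated with S1P for 45 min at 37 °C. In assay I, final S1P was 375 nM or 750 nM and compound was a 9-point 3-fold series from 100 μM, in 1% DMSO. Cells were fixed and Hoechst-stained, GFP relocalization was imaged, and EC50 values were fitted.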

T1 sequence (P21453 whole entry): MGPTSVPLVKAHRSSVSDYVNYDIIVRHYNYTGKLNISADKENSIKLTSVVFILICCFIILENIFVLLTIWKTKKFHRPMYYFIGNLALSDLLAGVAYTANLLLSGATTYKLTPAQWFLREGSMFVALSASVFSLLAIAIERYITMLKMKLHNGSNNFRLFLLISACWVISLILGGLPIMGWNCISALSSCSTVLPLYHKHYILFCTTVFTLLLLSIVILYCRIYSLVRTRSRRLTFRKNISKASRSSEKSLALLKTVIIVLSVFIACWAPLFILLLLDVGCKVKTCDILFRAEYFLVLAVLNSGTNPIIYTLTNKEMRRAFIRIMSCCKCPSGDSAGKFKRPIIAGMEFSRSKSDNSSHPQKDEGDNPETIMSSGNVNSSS

A word on the inhibition: it is the percentage by which the read-out fell short of the control. A low value points to little suppression. With `CCn1c([C@@H](C)NS(=O)(=O)c2cnn(C(C)C)c2C)nc2ccc(C(F)(F)F)cc21` [Example 118, N-{(1R)-1-[1-Ethyl-6-(trifluoromethyl)-1H-benzimidazol-2-yl]ethyl}-1-isopropyl-5-methyl-1H-pyrazole-4-sulfonamide], the inhibition at 3.5 µM was 78%.
With `CCn1c(C(C)NS(=O)(=O)c2ccc(=O)[nH]c2)nc2ccc(C(F)(F)F)cc21` (stereo not drawn) [Example 171, N-(1-(1-ethyl-6-(trifluoromethyl)-1H-benzo[d]imidazol-2-yl)ethyl)-6-oxo-1,6-dihydropyridine-3-sulfonamide], at 3.5 µM the inhibition was 73.3%.
The same measure, in the same setting: for `CCn1c([C@@H](C)NS(=O)(=O)c2cncc(Cl)c2)nc2ccc(C(F)(F)F)cc21` [Example 129, R-5-chloro-N-(1-(1-ethyl-6-(trifluoromethyl)-1H-benzo[d]imidazol-2-yl)ethyl)pyridine-3-sulfonamide] the value was 90.3%; for `CCn1c([C@@H](C)NS(=O)(=O)c2cccn2C)nc2ccc(C(F)(F)F)cc21` [Example 187, (R)—N-(1-(1-Ethyl-6-(trifluoromethyl)-1H-benzo[d]imidazol-2-yl)ethyl)-1-methyl-1H-pyrrole-2-sulfonamide], 86.2%.
For orientation: EC50 means the concentration giving half of the maximal effect. Low values mean higher potency in that assay, high ones lower potency in that assay. Take `CCn1c([C@H](C)NS(=O)(=O)c2ccc(Cl)cc2)nc2cnccc21` [4-chloro-N-[(1S)-1-(1-ethyl-1H-imidazo[4,5-c]pyridin-2-yl)ethyl]benzenesulfonamide]: where the note is “one or the other of the two Transfluor assays, Edg-1 Transfluor U2OS cells, S1P ligand”, the EC50 is greater than 33 µM.
The compound `CCn1c(C(C)(C)NS(=O)(=O)c2ccc(C(N)=O)nc2)nc2ccc(C(F)(F)F)cc21` [Example 141, 5-(N-(2-(1-Ethyl-6-(trifluoromethyl)-1H-benzo[d]imidazol-2-yl)propan-2-yl)sulfamoyl)picolinamide] had an inhibition at 3.5 µM of 82.6%.
`CCn1c(C(C)NS(=O)(=O)c2ccc(Cl)cc2)nc2cnc(C(F)(F)F)nc21` (stereo not drawn) [Example 96, 4-chloro-N-{1-[9-ethyl-2-(trifluoromethyl)-9H-purin-8-yl]ethyl}benzenesulfonamide] displayed an inhibition at 3.7 µM of 81.7%.
Compound `CCn1c([C@@H](C)NS(=O)(=O)c2cnc(C)n2C)nc2ccc(C(F)(F)F)cc21` [Example 32, N-{(1R)-1-[1-Ethyl-6-(trifluoromethyl)-1H-benzimidazol-2-yl]ethyl}-1,2-dimethyl-1H-imidazole-5-sulfonamide] gave an inhibition at 3.7 µM of 66.5%.
Regarding `CCn1c([C@@H](C)NS(=O)(=O)c2cc(C)oc2C)nc2ccc(C(F)(F)F)cc21` [Example 33, N-{(1R)-1-[1-Ethyl-6-(trifluoromethyl)-1H-benzimidazol-2-yl]ethyl}-2,5-dimethylfuran-3-sulfonamide], the inhibition at 3.5 µM came out at 92%.
The compound `CCn1c(C(C)NS(=O)(=O)c2ccc(Cl)cc2)nc2cccnc21` (stereo not drawn) [Example 15, 4-Chloro-N-[1-(3-ethyl-3H-imidazo[4,5-b]pyridin-2-yl)ethyl]benzenesulfonamide] showed an inhibition at 3.7 µM of 61.5%.
`CCn1c([C@@H](C)NS(=O)(=O)c2ccc(C#N)cc2)nc2cnccc21` [Example 103, 4-Cyano-N-[(1R)-1-(1-ethyl-1H-imidazol[4,5-c]pyridin-2-yl)ethyl]benzenesulfonamide]: the inhibition at 3.5 µM worked out at 89.4%.
Compound `CCn1c([C@@H](C)NS(=O)(=O)c2ccc(Cl)cc2)nc2cc(Br)ccc21` [Example 81, N-[(1R)-1-(5-Bromo-1-ethyl-1H-benzimidazol-2-yl)ethyl]-4-chlorobenzenesulfonamide] registered an inhibition at 3.7 µM of 91.6%.
As to `CCn1c([C@@H](C)NS(=O)(=O)c2ccc(C(N)=O)nc2)nc2ccc(C(F)(F)F)cc21` [Example 106, (R)-5-(N-(1-(1-Ethyl-6-(trifluoromethyl)-1H-benzo[d]imidazol-2-yl)ethyl)sulfamoyl)picolinamide], at 3.5 µM the inhibition was 93.3%.
Same read-out and setting: to `CCn1c([C@@H](C)NS(=O)(=O)c2ccc(OC)cc2)nc2ccc(C(F)(F)F)cc21` [Example 122, N-{(1R)-1-[1-Ethyl-6-(trifluoromethyl)-1H-benzimidazol-2-yl]ethyl}-4-methoxybenzenesulfonamide] belongs 91.4%; to `CCn1c([C@@H](C)NS(=O)(=O)c2ccc(Cl)cc2)nc2cnccc21` [Example 102, 4-Chloro-N-[(1R)-1-(1-ethyl-1H-imidazo[4,5-c]pyridin-2-yl)ethyl]benzenesulfonamide], 93.8%; to `CCC(NS(=O)(=O)c1ccc(Cl)cc1)c1nc2ccccc2n1CC` (stereo not drawn) [Example 2, 4-Chloro-N-[1-(1-ethyl-1H-benzoimidazol-2-yl)propyl]-benzenesulfonamide], 94%.
On to `CCn1c([C@@H](C)NS(=O)(=O)c2ccc(Cl)cc2)nc2cc(F)c(F)cc21` [Example 20, 4-Chloro-N-[(1R)-1-(1-ethyl-5,6-difluoro-1H-benzimidazol-2-yl)ethyl]benzenesulfonamide], for which the inhibition at 3.7 µM is 79.5%.
`CCn1c([C@@H](C)NS(=O)(=O)c2cncc(Br)c2)nc2ccc(C(F)(F)F)cc21` [Example 162] had an inhibition at 3.5 µM of 90.3%.
On the same count and under the same terms, to `CCn1c(C(C)(C)NS(=O)(=O)c2ccc(C#N)cc2)nc2ncccc21` [Example 176, 4-Cyano-N-[1-(1-ethyl-1H-imidazo[4,.5-b]pyridin-2-yl)-1-methylethyl] benzenesulfonamide] belongs 36.3%; to `CCn1c([C@@H](C)NS(=O)(=O)c2ccc(Cl)cc2)nc2ccc(C(F)F)cc21` [Example 69, 4-Chloro-N-{(1R)-1-[6-(difluoromethyl)-1-ethyl-1H-benzimidazol-2-yl]ethyl}benzenesulfonamide], 85.2%.
In the case of `CCn1c([C@@H](C)NS(=O)(=O)c2ccc(F)c(CN)c2)nc2ccc(C(F)(F)F)cc21` [Example 134, 3-(Aminomethyl)-N-[(1R)-1-[1-ethyl-6-(trifluoromethyl)-1H-benzimidazol-2-yl]ethyl]-4-fluorobenzenesulfonamide], the inhibition at 3.5 µM was determined as 95%.
The same measure, in the same setting: to `CCn1c([C@@H](C)NS(=O)(=O)c2cccc(Cl)c2)nc2ccc(C(F)(F)F)cc21` [Example 123, 3-Chloro-N-{(1R)-1-[1-ethyl-6-(trifluoromethyl)-1H-benzimidazol-2-yl]ethyl}benzenesulfonamide] belongs 96.7%; to `CCn1c([C@@H](C)NS(=O)(=O)c2ccc([N+](=O)[O-])cc2)nc2ccc(C(F)(F)F)cc21` [Example 110, (R)-N-(1-(1-Ethyl-6-(trifluoromethyl)-1H-benzo[d]imidazol-2-yl)ethyl)-4-nitrobenzenesulfonamide], 92.4%.
`CCn1c([C@@H](C)NS(=O)(=O)c2ccc3nsnc3c2)nc2ccc(C(F)(F)F)cc21` [Example 46, N-{(1R)-1-[1-Ethyl-6-(trifluoromethyl)-1H-benzimidazol-2-yl]ethyl}-2,1,3-benzothiadiazole-5-sulfonamide]: the inhibition at 3.7 µM is 89.8%.
With `CCn1c(C(C)(C)NS(=O)(=O)c2ccc(C#N)cc2)nc2ccc(C(F)(F)F)cc21` [Example 138, 4-Cyano-N-[1-(1-ethyl-6-trifluoromethyl-1H-benzoimidazol-2-yl)-1-methyl-ethyl]-benzenesulfonamide], the inhibition at 3.5 µM turned out to be 78.4%.
In the case of `CCn1c([C@@H](C)NS(=O)(=O)c2ccc(CCl)cc2)nc2ccc(C(F)(F)F)cc21` [Example 166, (R)-4-(Chloromethyl)-N-(1-(1-ethyl-6-(trifluoromethyl)-1H-benzo[d]imidazol-2-yl)ethyl)benzenesulfonamide], testing at 3.5 µM gave an inhibition of 86%.
`CCn1c([C@@H](C)NS(=O)(=O)c2ccc(C)nc2)nc2ccc(C(F)(F)F)cc21` [Example 108, (R)-N-(1-(1-Ethyl-6-(trifluoromethyl)-1H-benzo[d]imidazol-2-yl)ethyl)-6-methylpyridine-3-sulfonamide] returned an inhibition at 3.5 µM of 91.8%.
For `CCn1c([C@@H](C)NS(=O)(=O)c2ccc(C#N)cn2)nc2ccc(C(F)(F)F)cc21` [Example 114, (R)-5-Cyano-N-(1-(1-ethyl-6-(trifluoromethyl)-1H-benzo[d]imidazol-2-yl)ethyl)pyridine-2-sulfonamide], the inhibition at 3.5 µM turned out to be 72%.
The same measure, in the same setting: to `CCn1c([C@@H](C)NS(=O)(=O)c2ccc3c(c2)OCCO3)nc2ccc(C(F)(F)F)cc21` [Example 44, N-{(1R)-1-[1-Ethyl-6-(trifluoromethyl)-1H-benzimidazol-2-yl]ethyl}-2,3-dihydro-1,4-benzodioxine-6-sulfonamide] belongs 93.9%.
`CCn1c([C@@H](C)NS(=O)(=O)c2ccc(Cl)cc2)nc2cc(-c3cccnc3)ccc21` [Example 82, 4-Chloro-N-[(1R)-1-(1-ethyl-5-pyridin-3-yl-1H-benzimidazol-2-yl)ethyl]benzenesulfonamide] gave an inhibition at 3.7 µM of 10.3%.
As to `CCn1c([C@@H](C)NS(=O)(=O)c2ccnc(C)c2)nc2ccc(C(F)(F)F)cc21` [Example 161, (R)-N-(1-(1-Ethyl-6-(trifluoromethyl)-1H-benzo[d]imidazol-2-yl)ethyl)-2-methylpyridine-4-sulfonamide], the inhibition at 3.5 µM was 91.4%.
On the same count and under the same terms, for `CCn1c([C@@H](C)NS(=O)(=O)c2ccc(C#N)cc2)nc2ccc(C(F)(F)F)cc21` [Example 26, 4-Cyano-N-{(1R)-1-[1-ethyl-6-(trifluoromethyl)-1H-benzimidazol-2-yl]ethyl}benzenesulfonamide] the value was 87.4%; for `CCn1c([C@@H](C)NS(=O)(=O)c2ccc(Cl)cc2)nc2cnc(C(F)(F)F)cc21` [Example 147, (R)-4-Chloro-N-(1-(1-ethyl-6-(trifluoromethyl)-1H-imidazo[4,5-c]pyridin-2-yl)ethyl)benzenesulfonamide], 95.9%.
